The values that follow come from patent publication US6060608A, “Analogs of CC-1065 and the duocarmycins” (The Scripps Research Institute, priority 1999, dated 2000).

Read-outs that look alike come from different tables or passages of the source.

The nature of data set [1]: Aqueous solvolysis reactivity followed by UV. It is filed as physicochemical. To be noted: for half-life: read-out: solvolysis half-life t1/2 (converted). The procedure: The reactivity of 217-219 was assessed by following the solvolysis spectrophotometrically by UV at both pH 3 (50% CH3 OH-buffer, buffer=4:1:20 (v/v/v) 0.1 M citric acid, 0.2 M Na2 HPO4, H2 O) and pH 7 (1:1 H2 O--CH3 OH) measuring both the disappearance of the long-wavelength absorption band of the F2 CBI chromophore and the appearance of a short-wavelength absorption band attributable to the ring open products (FIG. 31).
Aqueous Solvolysis Reactivity. pH 3: N-BOC-CCBI (25, 100 μg) was dissolved in CH3 OH (1.5 mL) and mixed with pH 3 aqueous buffer (1.5 mL). The buffer contained 4:1:20 (v:v:v) 0.1 M citric acid, 0.2 M Na2 HPO4 and H2 O, respectively. The solvolysis solution was sealed and kept at 25° C. protected from light. The UV spectrum was measured at regular intervals every 2 h during the first day, every 12 h for another week, and every 24 h for an additional week. The decrease in the long-wavelength absorption at 322 nm and the increase in the short-wavelength absorption at 268 nm were monitored, FIG. 1.
pH 2: Samples of 25 (100 μg) and 26 (50 μg) were dissolved in CH3 OH (1.5 mL) and the solutions were mixed with aqueous buffer (pH 2.05, 1.5 mL). The buffer contained 4:1:20 (v:v:v) 1.0 M citric acid, 0.2 M Na2 HPO4, and H2 O, respectively. Immediately after mixing, the UV spectra of the solutions were measured against a reference solution containing CH3 OH (1.5 mL) and the aqueous buffer (1.5 mL) and these readings were used for the initial absorbance values. The solutions were stoppered, protected from the light, and allowed to stand at 25° C. UV spectra were recorded at regular intervals until constant values were obtained for the long and short wavelength absorbances. The solvolysis rate constants were determined from the slope of the lines obtained from linear least squares treatment of plots of ln[(Af -Ai)/(Af -A)] versus time using the short wavelength measurements for 25 and long wavelength measurements for 26).

For another data set, the system named is L1210. The data set is described as follows: In vitro cytotoxic activity, L1210. The following applies: N-BOC derivatives.
Data set [2] is described as follows: Solvolysis in THF-CH3OH with CF3SO3H. It is filed as physicochemical. To be noted: 20 equiv CH3OH, 0.1 equiv CF3SO3H. How it is done: Solvolysis of N-BOC-CCBI in THF-CH3 OH. The solvolysis of N-BOC-CCBI (25) was carried out in THF with 20-500 equiv of CH3 OH in the presence of 0.1-0.25 equiv of CF3 SO3 H. The following is the procedure for the solvolysis of 25 in THF with 20 equiv of CH3 OH in the presence of CF3 SO3 H (0.1 equiv). A stock solution was prepared by addition of CF3 SO3 H (5.6 μL) and anhydrous CH3 OH (502 μL) to anhydrous THF (99.49 mL). A sample of 25 (100 μg) in a UV cell was dissolved in THF (1950 μL) and the THF stock solution (50 μL) which contained CF3 SO3 H (0.1 equiv) and CH3 OH (20 equiv) was added. The solvolysis solution was sealed and UV spectrum was measured with an automated cycle program at regular intervals (10 min/cycle). The decrease in the long wavelength absorption at 313 nm was monitored and the solvolysis was complete after 80 h.

A short description of data set [3]: Solvolysis regioselectivity (acid-catalyzed nucleophilic addition to the cyclopropane). It is filed as physicochemical. The following applies: C9 addition versus ring expansion. An excerpt: Solvolysis: Reactivity. Two fundamental characteristics of the alkylation subunits have proven important in the studies to date. The first is the stereoelectronically-controlled acid-catalyzed ring-opening of the cyclopropane which dictates preferential addition of a nucleophile to the least substituted cyclopropane carbon. With the CBI series of modified alkylation subunits where this stereoelectronic alignment of the C8b-C9 bond is nearly optimized, exclusive (≥20:1) addition to the C9 center with cleavage of the C8b-C9 bond is observed. […] Thus, the impact of the difluorocyclopropane substitution on the reactivity and reaction regioselectivity of CBI was examined.
Solvolysis: Regioselectivity. Treatment of both 217 and 219 with catalytic CF3 SO3 H (0.1 equiv) in CH3 OH (0° C.) rapidly and cleanly provided a single characterizable product 225 (30 min, 90%) or 226 (10 min, 79%), FIG. 33. […] Furthermore, the ^1 H-^13 C HMBC NMR spectrum of 226 established the carbon-carbon connectivity of C1 (δ51.0) with the CF2 carbon (δ50.3, t) and C9b (δ125.0). No connectivity between the key CF2 carbon (δ50.3, t) and […] was detected as required of the ring expansion regioisomer. This was unambiguously established by conducting the solvolysis in THF-H2 O catalyzed by CF3 SO3 H (0.12 equiv) which cleanly provided 227 (18 h, 85%), FIG. 33. […]

The mark [4] stands for this setting: pH 2 (buffer pH 2.05), CH3OH-buffer 1:1, 25° C.

On to `CC(C)(C)OC(=O)N1CC2CC23C1=CC(=O)c1ccc(C#N)cc13` (stereo not drawn) [compound 25, N-(tert-Butyloxycarbonyl)-7-cyano-1,2,9,9a-tetrahydrocyclopropa[c]benz[e]indol-4-one], for which, in data set [1] (setting [4]), the “first order solvolysis rate constant” value was 7.94e-06 s⁻¹ and the half-life is 24.2 h. Also, in data set [1] (pH 3, 50% CH3OH-buffer), the “solvolysis rate constant k” value is 9.9e-07 s⁻¹ and the half-life was 213 h. In addition, in the data set with L1210, the “relative cytotoxic potency of natural versus unnatural enantiomers” value was 4 ×. For the same compound, in data set [2], the “solvolysis half-life t1/2” value was 9.2 h, the solvolysis rate k turned out to be 2e-05 s⁻¹ and the “time to complete solvolysis” value was 80 h. Further, the “solvolysis regioselectivity, addition to the least substituted or C9 cyclopropane carbon” value in data set [3] is “nucleophilic addition to the least substituted carbon of the activated cyclopropane was observed exclusively”.
